SMILES strings stand for the structures. Where two headings read alike, the source gives them in different places. Marks after values point to notes of the source that are not given here.

In data set [1] the test system is mice. As to the kind of experiment: Rotarod assay in mice. Format: in vivo. Conditions: 30 min after s.c. administration, doses equivalent to a 3- to 4-fold the antinociceptive ED50 dose. On the technique in general: The rotarod test checks motor coordination on a turning rod.
Data set [2] has as its target T1, human µOR (Homo sapiens, UniProt P35372).
T1 construct: host or cells: CHO cells (CHO-hµOR; CHO-hµOR-p22F for the cAMP assay)
As to the kind of experiment: cell-based. It is filed as cell-based. The following applies: for Emax: read-out: µOR % stim.

The target of data set [3] is T1, human µOR. The data set is described as follows: [35S]GTPγS binding assay, CHO-hµOR membranes. It is filed as biochemical. The following applies: for µOR % stim.: [35S]GTPγS binding, relative to DAMGO. In general terms: GTPγS is a poorly hydrolysed GTP analogue; its binding reports G protein activation.
The target in data set [4] is T2, human δOR (Homo sapiens, UniProt P41143).
T2 construct: host or cells: CHO cells (CHO-hδOR; CHO-hδOR-p22F for the cAMP assay)
T2 sequence (P41143 whole entry): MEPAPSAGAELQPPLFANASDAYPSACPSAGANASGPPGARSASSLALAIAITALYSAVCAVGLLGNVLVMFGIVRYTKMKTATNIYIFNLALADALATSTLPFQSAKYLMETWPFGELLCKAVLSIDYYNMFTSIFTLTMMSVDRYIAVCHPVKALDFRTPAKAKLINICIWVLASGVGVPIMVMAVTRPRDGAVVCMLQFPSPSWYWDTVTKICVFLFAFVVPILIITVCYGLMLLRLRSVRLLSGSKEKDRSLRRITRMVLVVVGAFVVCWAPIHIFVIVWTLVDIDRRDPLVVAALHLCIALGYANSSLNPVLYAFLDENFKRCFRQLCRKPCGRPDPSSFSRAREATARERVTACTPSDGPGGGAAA
As to the kind of experiment: Forskolin-induced cAMP accumulation assay, CHO-hδOR-p22F cells. The following applies: for Emax: read-out: δOR % stim. It is filed as cell-based.

The target in data set [5] is T3, human κOR (Homo sapiens, UniProt P41145).
T3 construct: host or cells: CHO cells (CHO-hκOR)
T3 sequence (P41145 whole entry): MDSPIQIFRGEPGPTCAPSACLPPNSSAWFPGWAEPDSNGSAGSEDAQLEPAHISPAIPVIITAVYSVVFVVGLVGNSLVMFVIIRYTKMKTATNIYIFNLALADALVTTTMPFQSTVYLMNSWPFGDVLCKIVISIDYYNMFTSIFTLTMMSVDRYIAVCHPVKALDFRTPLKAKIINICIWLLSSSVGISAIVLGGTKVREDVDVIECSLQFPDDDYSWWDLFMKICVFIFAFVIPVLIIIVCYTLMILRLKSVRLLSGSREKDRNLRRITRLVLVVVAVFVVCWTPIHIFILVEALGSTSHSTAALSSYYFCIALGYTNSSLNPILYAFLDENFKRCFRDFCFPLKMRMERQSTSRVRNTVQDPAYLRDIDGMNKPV
The data set is described as follows: biochemical. It is filed as binding.

The target of data set [6] is T1, human µOR. As to the kind of experiment: biochemical. It is filed as binding.
For data set [7], the target named is T2, human δOR. The data set is described as follows: [35S]GTPγS binding assay, CHO-hδOR membranes. It is filed as biochemical. The following applies: for δOR % stim. / fold higher δOR agonist potency vs. N-methyl counterpart: [35S]GTPγS binding; for δOR % stim.: relative to DPDPE; for fold higher δOR agonist potency vs. N-methyl counterpart: vs. 14-OMO (3) and 14-MM (4).

Data set [8] deals with mice. The data set is described as follows: Radiant heat tail-flick test in mice. Format: in vivo. Conditions: Mus musculus, sc, 0.5 h, s.c., at 30 min (peak effect), n = 5–6 mice per group, read-out: ED50 (95% CL). For orientation: In hot-plate and tail-flick tests a longer latency is read as antinociception.
For data set [9], the target named is T2, human δOR. The data set is described as follows: Competition binding assay, CHO-hδOR cell membranes ([3H]Diprenorphine).
Data set [10] addresses T3, human κOR. The data set is described as follows: [35S]GTPγS binding assay, CHO-hκOR membranes. It is filed as biochemical. The following applies: for κOR % stim.: [35S]GTPγS binding, relative to U69,593.
Data set [11] has as its target T3, human κOR. The following applies: cited from earlier work.
The subject of data set [12] is mice. The following applies: s.c., cited from earlier work; for ED50 (95% CL): tail-flick, at 30 min (peak effect).
For data set [13], the target named is T1, human µOR. The following applies: cited from earlier work.
Data set [14] has as its target T2, human δOR. Conditions: [35S]GTPγS binding; relative to DPDPE; cited from earlier work.
Data set [15] relates to mice. The following applies: hot-plate test, s.c.; cited from earlier work.

T1 sequence (P35372 whole entry): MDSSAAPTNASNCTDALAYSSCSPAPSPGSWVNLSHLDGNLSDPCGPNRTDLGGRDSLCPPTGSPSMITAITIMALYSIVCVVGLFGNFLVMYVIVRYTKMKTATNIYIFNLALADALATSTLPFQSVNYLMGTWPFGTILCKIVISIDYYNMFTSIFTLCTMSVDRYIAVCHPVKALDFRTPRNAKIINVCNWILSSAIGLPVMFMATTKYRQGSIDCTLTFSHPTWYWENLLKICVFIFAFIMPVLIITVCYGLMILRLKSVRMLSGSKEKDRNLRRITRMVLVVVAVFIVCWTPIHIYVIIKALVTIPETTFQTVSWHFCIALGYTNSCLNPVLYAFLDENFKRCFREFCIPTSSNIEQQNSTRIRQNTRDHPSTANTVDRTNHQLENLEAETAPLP

Turning to `CN1CC[C@]23c4c5ccc(O)c4O[C@H]2[C@@H](O)C=C[C@H]3[C@H]1C5` [Morphine (1), Morphine, reference compound], the “effect on motor coordination (rotarod performance)” value (“effect on motor coordination” below) in the data set on mice [1] was “caused a significant deficit in rotarod performance”.

The EC50 is the concentration giving half of the maximal effect. Low readings indicate greater potency, high ones weaker potency. One may read the Ki as a dissociation constant, usually derived from enzyme kinetics or from competition with a known ligand. Usually ED50 stands for the midpoint of the dose-response relation. As usually defined, the melting point is the temperature, or range, at which the solid turns liquid. For `CO[C@@]12CCC(=O)[C@]3(C)Oc4c(O)ccc5c4[C@@]31CCN(CCc1ccccc1)[C@@H]2C5` [Compound 4a, 4,5α-Epoxy-3-hydroxy-14-methoxy-5-methyl-N-phenethylmorphinan-6-one], the melting point fell in the range of 179 to 180 °C. In addition, on human µOR [2], the concentration giving a half-maximal response (EC50) amounted to 0.15 ± 0.07 nM and the Emax stood at 98 ± 12%. Also, at human µOR [3], the half-maximal effective concentration (EC50) is 1.86 ± 0.84 nM and the µOR % stim. is recorded as 102 ± 13%. Also, at human δOR [4], the midpoint of the response, the EC50, lay at 0.55 ± 0.16 nM and the Emax came to 96 ± 4%. For the same compound, at human κOR [5], affinity was put at a Ki of 35.3 ± 5.5 nM and the “fold decrease in κOR affinity vs. N-methyl parent” value was “ca. 3 fold”. In addition, on human µOR [6], the Ki is 0.24 ± 0.03 nM, the “Ki ratio δOR/µOR” value is 6.0 and the “Ki ratio κOR/µOR” value was determined as 147. The “effect on motor coordination” value in the data set on mice [1] is “lack of the mixed µ/δOR agonists 3a and 4a to induce motor dysfunction”. Besides, at human δOR [7], it took 9.54 ± 2.33 nM to reach a half-maximal effect (EC50), the δOR % stim. was 103 ± 2% and the “fold higher δOR agonist potency vs. N-methyl counterpart” value was found to be 4 fold. Further, in the data set on mice [8], the 50% effective dose (ED50) was determined as 0.024 mg/kg. The same compound registered an inhibitory constant (Ki) at human δOR [9] of 1.45 ± 0.31 nM. Also, at human κOR [10], the response was half-maximal at 334 ± 114 nM (EC50) and the κOR % stim. is on record as 51.3 ± 10.4%.

On to `Oc1ccc2c3c1O[C@H]1[C@@H](O)C=C[C@H]4[C@@H](C2)N(CCc2ccccc2)CC[C@@]341` [Compound 1a], for which, on human µOR [2], the EC50 amounted to 2.87 ± 0.91 nM, the “fold enhanced µOR agonist potency vs. N-methyl parent” value is reported as 4- to 5 fold and the Emax was determined as 107 ± 5%. For the same compound, on human κOR [11], the κOR % stim. was 19 ± 2^b*** %. In addition, the “fold higher antinociceptive potency vs. N-methyl parent” value in the data set with mice [12] (tail-flick test) is recorded as 28 fold. The “ED50 (95% CL)” value in the data set with mice [12] is 0.11 (0.027–0.40)^b mg/kg. In addition, at human µOR [13], the “fold increase in µOR agonist potency vs. N-methyl parent” value is 2- to 3 fold and the µOR % stim. is 113 ± 8^b %. Besides, at human δOR [4], the concentration giving a half-maximal response (EC50) was determined as 315 ± 110 nM and the Emax came to 105 ± 8%. On human κOR [5], this compound returned a Ki of 93.5 ± 2.9 nM. Also, on human µOR [6], the inhibition constant Ki came to 0.25 ± 0.09 nM, the “Ki ratio δOR/µOR” value is on record as 98, the “Ki ratio κOR/µOR” value amounted to 374 and the “fold increased affinity at the human µOR vs. N-methyl parent” value is on record as “ca. 13 fold”. Besides, the “effect on motor coordination” value in the data set on mice [1] is on record as “did not affect the evoked locomotor activity of mice”. Further, the δOR % stim. at human δOR [14] is 138 ± 17^b %. Further, the Ki on human δOR [9] turned out to be 24.5 ± 8.7 nM. Besides, the “fold more effective than morphine (antinociception)” value with mice [15] is recorded as 22 fold.

For `O=C1CC[C@@]2(O)[C@H]3Cc4ccc(O)c5c4[C@@]2(CCN3CCc2ccccc2)[C@H]1O5` [Compound 2a], the “ED50 (95% CL)” value with mice [12] was 0.15 (0.058–0.40)^b mg/kg. In the data set with mice [1], the “effect on motor coordination” value is given as “did not affect the evoked locomotor activity of mice”.

With `CO[C@@]12CCC(=O)[C@@H]3Oc4c(O)ccc5c4[C@@]31CCN(C)[C@@H]2C5` [14-OMO (3), 14-O-methyloxymorphone, reference compound], the EC50 on human µOR [2] stood at 0.19 ± 0.14 nM; at human µOR [3], 1.21 ± 0.48 nM; at human δOR [4], 5.42 ± 0.93 nM; on human δOR [7], 38.5 ± 6.9 nM; at human κOR [10] it was 135 ± 29 nM. Also, the Emax on human µOR [2] came to 90 ± 8%; on human δOR [4] it was 98 ± 3%. On human µOR [3], the µOR % stim. is 95 ± 5%. Besides, the inhibitory constant (Ki) on human κOR [5] was 10.3 ± 1.8 nM; on human µOR [6] it was 0.27 ± 0.09 nM; at human δOR [9], 9.08 ± 0.31 nM. Moreover, the “Ki ratio δOR/µOR” value at human µOR [6] is 34. Also, the “Ki ratio κOR/µOR” value at human µOR [6] stood at 38. The same compound returned a δOR % stim. at human δOR [7] of 102 ± 4%. Further, the median effective dose (ED50) with mice [8] is 0.014 mg/kg. On human κOR [10], this compound registered a κOR % stim. of 65.9 ± 6.5%.

As to `CO[C@@]12CCC(=O)[C@@H]3Oc4c(O)ccc5c4[C@@]31CCN(CCc1ccccc1)[C@@H]2C5` [Compound 3a, 4,5α-Epoxy-3-hydroxy-14-methoxy-N-phenethylmorphinan-6-one], the melting point was 180 to 182 °C. At human µOR [2], the EC50 amounted to 0.078 ± 0.004 nM and the Emax is 88 ± 12%. Further, on human µOR [3], a half-maximal effect (EC50) was put at 1.26 ± 0.63 nM and the µOR % stim. turned out to be 98 ± 10%. For the same compound, at human δOR [4], the EC50 came out at 0.6 ± 0.07 nM and the Emax was 93 ± 2%. For the same compound, the Ki on human κOR [5] came out at 15.8 ± 8.8 nM. In addition, at human µOR [6], the inhibition constant (Ki) is 0.19 ± 0.02 nM, the “Ki ratio δOR/µOR” value is recorded as 9.5 and the “Ki ratio κOR/µOR” value is on record as 83. Further, in the data set with mice [1], the “effect on motor coordination” value was “lack of the mixed µ/δOR agonists 3a and 4a to induce motor dysfunction”. For the same compound, on human δOR [7], the half-maximal effective concentration (EC50) came to 9.34 ± 0.6 nM, the δOR % stim. worked out at 107 ± 5% and the “fold higher δOR agonist potency vs. N-methyl counterpart” value is listed as 4 fold. Besides, the ED50 in the data set with mice [8] amounted to 0.014 mg/kg. Moreover, the affinity at human δOR [9] corresponds to a Ki of 1.81 ± 0.68 nM. On human κOR [10], this compound showed an EC50 of 144 ± 9 nM and a κOR % stim. of 35.4 ± 7.5 %.

As to `CO[C@@]12CCC(=O)[C@]3(C)Oc4c(O)ccc5c4[C@@]31CCN(C)[C@@H]2C5` [14-MM (4), 14-methoxymetopon, reference compound], the half-maximal effective concentration (EC50) on human µOR [2] amounted to 0.31 ± 0.07 nM; at human µOR [3], 2.66 ± 0.58 nM; on human δOR [4], 4.06 ± 0.89 nM; on human δOR [7], 36.8 ± 12.4 nM; at human κOR [10], 181 ± 9 nM. Moreover, the Emax at human µOR [2] is 93 ± 5%; at human δOR [4], 99 ± 8%. Moreover, the µOR % stim. at human µOR [3] stood at 99 ± 5%. Moreover, the Ki amounted to 12.8 ± 1.5 nM on human κOR [5], 0.25 ± 0.04 nM on human µOR [6] (read-out: Ki µOR) and 18.6 ± 0.98 nM on human δOR [9]. For the same compound, the “Ki ratio δOR/µOR” value at human µOR [6] was 74. The “Ki ratio κOR/µOR” value on human µOR [6] is 51. Also, the δOR % stim. on human δOR [7] is 100 ± 9%. In the data set on mice [8], the ED50 stood at 0.024 mg/kg. The same compound had a κOR % stim. at human κOR [10] of 68.9 ± 9.2%.

For `CN1CC[C@]23c4c5ccc(O)c4O[C@H]2C(=O)CC[C@@]3(O)[C@H]1C5` [Oxymorphone (2), oxymorphone, reference compound], in the data set with mice [12], the “ED50 (95% CL)” value was 0.35 (0.16–0.77)^b mg/kg. Moreover, the “effect on motor coordination” value in the data set with mice [1] is “caused a significant deficit in rotarod performance”.

The values are drawn from PMC7101422, “N-Phenethyl Substitution in 14-Methoxy-N-methylmorphinan-6-ones Turns Selective µ Opioid Receptor Ligands into Dual µ/δ Opioid Receptor Agonists” (Scientific Reports, 2020).
